Measurements published in PubChem BioAssay AID488994 (Sanford-Burnham Center for Chemical Genomics, 2010).
Calls of active or inactive are those of the source.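 Rule for the calls: active = IC50 below 20 µM in the dose response test; inactive = the rest.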

Target: Type-1 angiotensin II receptor (Homo sapiens) (UniProt P30556)
Assay: AT1 receptor antagonists, beta-arrestin recruitment, SAR follow-up, selectivity assay for APJ antagonist project, cell-based, CHO-K1 PathHunter, luminescence, set 2 (AID 488994)
Details: CHO-K1 AGTR1 PathHunter beta-arrestin

Type-1 angiotensin II receptor (Homo sapiens), sequence (P30556 whole entry, looked up): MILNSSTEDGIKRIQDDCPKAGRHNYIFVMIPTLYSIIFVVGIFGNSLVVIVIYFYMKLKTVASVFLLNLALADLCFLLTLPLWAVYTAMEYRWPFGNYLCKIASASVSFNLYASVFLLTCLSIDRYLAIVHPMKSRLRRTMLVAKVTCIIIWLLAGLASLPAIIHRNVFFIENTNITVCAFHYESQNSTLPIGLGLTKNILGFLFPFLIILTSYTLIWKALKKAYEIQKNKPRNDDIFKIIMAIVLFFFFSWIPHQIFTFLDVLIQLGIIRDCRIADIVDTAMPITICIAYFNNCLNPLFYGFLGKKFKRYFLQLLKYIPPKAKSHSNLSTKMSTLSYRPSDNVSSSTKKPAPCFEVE

IC50, inactive:
O=C(Nc1ccc(CSc2ncccn2)cc1)c1ccccc1 > 79 µM
COc1cc(CSc2nc(C)cc(C)n2)ccc1OC(=O)c1ccc([N+](=O)[O-])cc1 > 79 µM
Cc1ccnc(SCc2cc(=O)c(OCc3ccc(Cl)c([N+](=O)[O-])c3)co2)n1 > 79 µM
COc1cc(CSc2nc(C)cc(C)n2)ccc1OC(=O)c1ccccc1 > 79 µM
Cc1ccnc(SCc2cc(=O)c(OC(=O)c3ccc([N+](=O)[O-])o3)co2)n1 > 79 µM
Cc1ccnc(SCc2cc(=O)c(OC(=O)C(C)(C)C)co2)n1 > 79 µM
Cc1ccnc(SCc2cc(=O)c(OC(=O)c3ccno3)co2)n1 > 79 µM
COc1cc(CSc2nc(C)cc(C)n2)ccc1OC(=O)c1cccnc1 > 79 µM
CC(=O)Oc1coc(CSc2nccc(C)n2)cc1=O > 79 µM
Cc1ccnc(SCc2cc(=O)c(OC(=O)C(C)C)co2)n1 > 79 µM
